Assays:
[1] = target: hGYS2 enzyme (recombinant hGYS2/GN1 protein) (Homo sapiens (Human), UniProt P54840); assay: GYS2 coupled enzyme assay (PK/LDH); format: biochemical; details: geometric mean of at least 2 assay runs on separate days, read-out: Avg_IC50
Outline: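 Recombinant hGYS2/GN1 (200 nM) with 2 mM UDP-glucose, 0.2% rabbit liver glycogen, 2 mM glucose-6-phosphate; UDP coupled via PK/LDH (2 mM PEP, 0.6 mM NADH). Buffer 50 mM Tris pH 7.5, 2 mM MgCl2, 100 mM KCl, 2.5% DMSO. A340 slope over 10 min; IC50 from Hill fit of duplicates.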

[2] = test system: hGYS1 enzyme / glycogen synthesis in HeLa cells; assay: GYS1 cell based assay (glycogen synthesis, Glucose-glo); parameters: species or system human; details: Homo sapiens, HeLa, 24 h, 24 h incubation, 20 mM glucose, geometric mean of at least 2 runs
Outline: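 HeLa cells starved 24 h in medium containing only 1× Glutamax were plated onto compound in medium with 20 mM glucose (1% DMSO final) for 24 h, 37 °C, 5% CO2. Acid lysates were Tris-quenched, glucoamylase-digested (pH 5.3, 1 h, 37 °C) and read by Glucose-glo luminescence. IC50 came from Hill fits, as geometric mean of ≥2 runs.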

[3] = target: hGYS1 enzyme (recombinant hGYS1/GN1 protein) (Homo sapiens (Human), UniProt P13807); assay: GYS1 coupled enzyme assay (PK/LDH); format: biochemical; details: hGYS1/GN1 50 nM, UDP-Glucose 0.8 mM, G6P 1 mM; geometric mean of at least 2 runs
Sequence of hGYS1 enzyme (recombinant hGYS1/GN1 protein) (P13807 whole entry): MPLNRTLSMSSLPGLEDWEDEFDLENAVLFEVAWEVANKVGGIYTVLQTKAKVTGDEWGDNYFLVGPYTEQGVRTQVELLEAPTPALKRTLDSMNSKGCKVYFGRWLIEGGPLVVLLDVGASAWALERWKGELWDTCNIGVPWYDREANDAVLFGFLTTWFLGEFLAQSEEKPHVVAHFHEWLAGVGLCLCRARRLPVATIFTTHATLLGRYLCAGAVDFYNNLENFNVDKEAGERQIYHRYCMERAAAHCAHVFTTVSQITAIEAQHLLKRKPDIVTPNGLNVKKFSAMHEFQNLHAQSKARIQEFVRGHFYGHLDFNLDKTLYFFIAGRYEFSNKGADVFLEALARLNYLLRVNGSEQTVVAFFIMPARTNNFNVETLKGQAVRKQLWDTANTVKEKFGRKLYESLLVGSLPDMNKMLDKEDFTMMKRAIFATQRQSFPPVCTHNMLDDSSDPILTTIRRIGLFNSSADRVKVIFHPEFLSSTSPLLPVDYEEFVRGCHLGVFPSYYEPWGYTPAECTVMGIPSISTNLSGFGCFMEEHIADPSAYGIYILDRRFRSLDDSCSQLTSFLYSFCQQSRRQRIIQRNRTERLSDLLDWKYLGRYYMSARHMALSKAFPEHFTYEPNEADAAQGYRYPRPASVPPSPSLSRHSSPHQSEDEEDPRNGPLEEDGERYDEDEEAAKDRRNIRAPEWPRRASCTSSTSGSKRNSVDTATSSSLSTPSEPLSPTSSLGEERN
Sequence of hGYS1 enzyme (recombinant hGYS1/GN1 protein) (P46976 whole entry partner): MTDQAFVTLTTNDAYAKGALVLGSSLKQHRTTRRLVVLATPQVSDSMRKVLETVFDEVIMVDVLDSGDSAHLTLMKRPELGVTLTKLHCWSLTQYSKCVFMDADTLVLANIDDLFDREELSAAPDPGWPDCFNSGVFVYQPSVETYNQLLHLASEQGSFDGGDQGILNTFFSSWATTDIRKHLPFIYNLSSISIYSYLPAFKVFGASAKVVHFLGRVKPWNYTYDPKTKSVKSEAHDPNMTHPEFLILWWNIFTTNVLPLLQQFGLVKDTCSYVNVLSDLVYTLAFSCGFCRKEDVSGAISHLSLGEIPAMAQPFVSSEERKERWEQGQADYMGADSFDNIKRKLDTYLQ

Sequence of hGYS2 enzyme (recombinant hGYS2/GN1 protein) (P54840 whole entry): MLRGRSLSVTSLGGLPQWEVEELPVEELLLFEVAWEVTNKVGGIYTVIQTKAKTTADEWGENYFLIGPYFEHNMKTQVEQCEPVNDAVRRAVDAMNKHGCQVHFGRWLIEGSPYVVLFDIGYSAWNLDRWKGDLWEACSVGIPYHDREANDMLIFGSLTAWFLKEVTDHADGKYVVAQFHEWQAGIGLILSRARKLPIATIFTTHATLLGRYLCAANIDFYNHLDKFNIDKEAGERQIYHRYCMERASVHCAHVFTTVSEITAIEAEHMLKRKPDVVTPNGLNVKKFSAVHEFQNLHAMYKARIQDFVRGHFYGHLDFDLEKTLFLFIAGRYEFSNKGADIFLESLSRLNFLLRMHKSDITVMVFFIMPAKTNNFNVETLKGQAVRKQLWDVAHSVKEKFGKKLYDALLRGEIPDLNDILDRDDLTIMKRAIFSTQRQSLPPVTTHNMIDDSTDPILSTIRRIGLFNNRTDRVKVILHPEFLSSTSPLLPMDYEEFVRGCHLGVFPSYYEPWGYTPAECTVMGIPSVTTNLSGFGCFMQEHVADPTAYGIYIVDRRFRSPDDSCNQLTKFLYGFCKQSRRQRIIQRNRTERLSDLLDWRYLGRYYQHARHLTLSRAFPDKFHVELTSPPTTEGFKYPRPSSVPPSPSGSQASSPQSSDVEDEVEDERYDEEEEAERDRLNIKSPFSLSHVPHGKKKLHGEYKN
Sequence of hGYS2 enzyme (recombinant hGYS2/GN1 protein) (P46976 whole entry partner): as the sequence (P46976 whole entry partner) above

Row | SMILES | IC50 [1] | IC50 [2] | IC50 [3]
1 | CC(C)c1ccc([C@@H](NC(=O)[C@@H]2C[C@@H](F)CN2C(=O)Cn2cnnc2)c2ccccc2)nc1F [Compound 390, (2S,4R)-4-fluoro-N-[(S)-[6-fluoro-5-(propan-2-yl)pyridin-2-yl](phenyl)methyl]-1-[2-(4H-1,2,4-triazol-4-yl)acetyl] pyrrolidine-2-carboxamide] | > 100000 nM | 1030 nM | 27 nM
2 | Cc1cn(CC(=O)N2C[C@H](F)C[C@H]2C(=O)N[C@@H](c2ccccc2)c2ccc(C3CC(F)(F)C3)cn2)c(=O)[nH]c1=O [Compound 535, (2S,4R)-N-[(S)-[5-(3,3-difluorocyclobutyl)pyridin-2-yl](phenyl)methyl]-4-fluoro-1-[2-(5-methyl-2,4-dioxo-1,2,3,4-tetrahydropyrimidin-1-yl)acetyl] pyrrolidine-2-carboxamide] | > 100000 nM | 1220 nM | 12 nM
3 | Cc1n[nH]c(C)c1CC(=O)N1C[C@H](F)C[C@H]1C(=O)N[C@@H](c1ccccc1)c1ccc(C(C)C)cn1 [Compound 246, (2S,4R)-1-[2-(3,5-dimethyl-1H-pyrazol-4-yl)acetyl]-4-fluoro-N-[(S)-phenyl[5-(propan-2-yl)pyridin-2-yl]methyl]pyrrolidine-2-carboxamide] | > 100000 nM | 620 nM | 33 nM
4 | CCn1c(=O)ccn(CC(=O)N2C[C@H](F)C[C@H]2C(=O)N[C@@H](c2ccccc2)c2ccc(C3CC(F)(F)C3)c(F)n2)c1=O [Compound 515, (2S,4R)-N-[(S)-[5-(3,3-difluorocyclobutyl)-6-fluoropyridin-2-yl](phenyl)methyl]-1-[2-(3-ethyl-2,4-dioxo-l,2,3,4-tetrahydropyrimidin-1-yl)acetyl]-4-fluoropyrrolidine-2-carboxamide] | > 100000 nM | 100 nM | 4 nM
5 | CC(C)(C)c1ccc([C@@H](NC(=O)[C@@H]2C[C@@H](F)CN2C(=O)Cc2cnn[nH]2)c2ccccc2)cc1F [Compound 685, (2S,4R)-N-[(S)-(4-tert-butyl-3-fluorophenyl)(phenyl)methyl]-4-fluoro-1-[2-(1H-1,2,3-triazol-5-yl)acetyl]pyrrolidine-2-carboxamide] | > 100000 nM | 2710 nM | 204 nM
6 | Cn1nc(CC(=O)N2C[C@H](F)C[C@H]2C(=O)N[C@@H](c2ccccc2)c2ccc(C3(C)CC3)c(F)c2)c2ccccc21 [Compound 564, (2S,4R)-4-fluoro-N-[(S)-[3-fluoro-4-(1-methylcyclopropyl)phenyl](phenyl)methyl]-1-[2-(1-methyl-1H-indazol-3-yl)acetyl]pyrrolidine-2-carboxamide] | > 100000 nM | 790 nM | 56 nM
7 | CC(C)c1ccc([C@@H](NC(=O)[C@@H]2C[C@@H](F)CN2C(=O)[C@@H]2CNC(=O)O2)c2ccccc2)cc1F [Compound 381, (2S,4R)-4-fluoro-N-[(S)-[3-fluoro-4-(propan-2-yl)phenyl](phenyl)methyl]-1-[(5S)-2-oxo-1,3-oxazolidine-5-carbonyl]pyrrolidine-2-carboxamide] | > 100000 nM | 440 nM | 58 nM
8 | Cc1cc([C@@H](NC(=O)[C@@H]2C[C@@H](F)CN2C(=O)Cc2nnc(C(F)F)o2)c2ccccc2)ncc1C(C)C [Compound 602, (2S,4R)-1-(2-(5-(difluoromethyl)-1,3,4-oxadiazol-2-yl)acetyl)-4-fluoro-N—((S)-(5-isopropyl-4-methylpyridin-2-yl)(phenyl)methyl)pyrrolidine-2-carboxamide] | > 100000 nM | 760 nM | 92 nM
9 | CN(C)c1cnn(CC(=O)N2C[C@H](F)C[C@H]2C(=O)N[C@@H](c2ccccc2)c2ccc(C3CC3)c(F)c2)n1 [Compound 483, (2S,4R)-N-[(S)-(4-cyclopropyl-3-fluorophenyl)(phenyl)methyl]-1-{2-[4-(dimethylamino)-2H-1,2,3-triazol-2-yl]acetyl}-4-fluoropyrrolidine-2-carboxamide] | > 100000 nM | 720 nM | 49 nM
10 | Cc1coc(CC(=O)N2C[C@H](F)C[C@H]2C(=O)N[C@@H](c2ccccc2)c2ccc(C3CC(F)(F)C3)cn2)n1 [Compound 540, (2S,4R)-N-[(S)-[5-(3,3-difluorocyclobutyl)pyridin-2-yl] (phenyl)methyl]-4-fluoro-1-[2-(4-methyl-1,3-oxazol-2-yl)acetyl] pyrrolidine-2-carboxamide] | > 100000 nM | 590 nM | 47 nM
11 | Cc1cn(CC(=O)N2C[C@H](F)C[C@H]2C(=O)N[C@@H](c2ccccc2)c2ccc(C3CC(F)(F)C3)c(F)c2)c(=O)[nH]c1=O [Compound 551, (2S,4R)-N-[(S)-[4-(3,3-difluorocyclobutyl)-3-fluorophenyl](phenyl)methyl]-4-fluoro-1-[2-(5-methyl-2,4-dioxo-1,2,3,4-tetrahydropyrimidin-1-yl)acetyl]pyrrolidine-2-carboxamide] | > 100000 nM | 210 nM | 7 nM
12 | CC(C)c1ccc([C@@H](NC(=O)[C@@H]2C[C@@H](F)CN2C(=O)Cc2cccnc2)c2ccccc2)cc1F [Compound 348, (2S,4R)-4-fluoro-N-[(S)-[3-fluoro-4-(propan-2-yl)phenyl](phenyl)methyl]-1-[2-(pyridin-3-yl)acetyl]pyrrolidine-2-carboxamide] | > 100000 nM | 270 nM | 24 nM
13 | O=C(N[C@@H](c1ccccc1)c1ccc(C2CC(F)(F)C2)c(F)c1)[C@@H]1C[C@@H](F)CN1C(=O)Cc1ncco1 [Compound 552, (2S,4R)-N-[(S)-[4-(3,3-difluorocyclobutyl)-3-fluorophenyl](phenyl)methyl]-4-fluoro-1-[2-(1,3-oxazol-2-yl)acetyl]pyrrolidine-2-carboxamide] | > 100000 nM | 1120 nM | 82 nM
14 | O=C(N[C@@H](c1ccccc1)c1ccc(C2CC2)c(F)c1)[C@@H]1C[C@@H](F)CN1C(=O)CNC(=O)N1CCN(CC2CC2)CC1 [Compound 490, N-{2-[(2S,4R)-2-{[(S)-(4-cyclopropyl-3-fluorophenyl)(phenyl)methyl]carbamoyl}-4-fluoropyrrolidin-1-yl]-2-oxoethyl}-4-(cyclopropylmethyl) piperazine-1-carboxamide] | > 100000 nM | 2870 nM | 52 nM
15 | Cc1nn(CC(=O)N2C[C@H](F)C[C@H]2C(=O)N[C@@H](c2ccccc2)c2ccc(C(C)C)cn2)c(=O)o1 [Compound 275, (2S,4R)-4-fluoro-1-[2-(5-methyl-2-oxo-2,3-dihydro-1,3,4-oxadiazol-3-yl)acetyl]-N-N-[(S)-phenyl[5-(propan-2-yl)pyridin-2-yl]methyl]pyrrolidine-2-carboxamide] | > 100000 nM | 1050 nM | 76 nM
16 | CC(C)c1ccc([C@@H](NC(=O)[C@@H]2C[C@@H](F)CN2C(=O)Cc2cnc3ccccn23)c2ccccc2)cc1F [Compound 356, (2S,4R)-4-fluoro-N-[(S)-[3-fluoro-4-(propan-2-yl)phenyl](phenyl)methyl]-1-(2-{imidazo[1,2-a]pyridin-3-yl}acetyl)pyrrolidine-2-carboxamide] | > 100000 nM | 190 nM | 13 nM
17 | CC(C)c1ccc([C@@H](NC(=O)[C@@H]2C[C@@H](F)CN2C(=O)Cn2cc(N(C)C)nn2)c2ccccc2)nc1 [Compound 260, (2S,4R)-1-{2-[4-(dimethylamino)-1H-1,2,3-triazol-1-yl]acetyl}-4-fluoro-N-[(S)-phenyl[5-(propan-2-yl)pyridin-2-yl]methyl]pyrrolidine-2-carboxamide] | > 100000 nM | 530 nM | 35 nM
18 | CC(C)c1ccc([C@@H](NC(=O)[C@@H]2C[C@@H](F)CN2C(=O)Cc2[nH]nnc2C(F)(F)F)c2ccccc2)nc1F [Compound 403, (2S,4R)-4-fluoro-N-[(S)-[6-fluoro-5-(propan-2-yl)pyridin-2-yl](phenyl)methyl]-l-{2-[4-(trifluoromethyl)-1H-1,2,3-triazol-5-yl]acetyl}pyrrolidine-2-carboxamide] | > 100000 nM | 140 nM | 4 nM
19 | Cc1nn(C)c(C)c1CC(=O)N1C[C@H](F)C[C@H]1C(=O)N[C@@H](c1ccccc1)c1ccc(C(C)C)c(F)c1 [Compound 351, (2S,4R)-4-fluoro-N-[(S)-[3-fluoro-4-(propan-2-yl)phenyl](phenyl)methyl]-1-[2-(1,3,5-trimethyl-1H-pyrazol-4-yl)acetyl]pyrrolidine-2-carboxamide] | > 100000 nM | 130 nM | 8 nM
20 | CC(C)c1ccc([C@@H](NC(=O)[C@@H]2C[C@@H](F)CN2C(=O)Cn2nnnc2C(F)F)c2ccccc2)nc1F [Compound 400, (2S,4R)-1-{2-[5-(difluoromethyl)-1H-1,2,3,4-tetrazol-1-yl]acetyl}-4-fluoro-N-[(S)-[6-fluoro-5-(propan-2-yl)pyridin-2-yl](phenyl)methyl] pyrrolidine-2-carboxamide] | > 100000 nM | 170 nM | 12 nM
21 | CN(C)C(=O)NCC(=O)N1C[C@H](F)C[C@H]1C(=O)N[C@@H](c1ccccc1)c1ccc(C2CC2)c(F)n1 [Compound 300, (2S,4R)-N-[(S)-(5-cyclopropyl-6-fluoropyridin-2-yl)(phenyl)methyl]-1-{2-[(dimethylcarbamoyl)amino]acetyl}-4-fluoropyrrolidine-2-carboxamide] | > 100000 nM | 570 nM | 28 nM
